The source of these data is patent US8933029B2, “Antimicrobial and anti-inflammatory peptides” (Carrus Capital Corporation, priority 2001, dated 2015).

The subject of one assay is TPA-induced ear edema. Nature of the assay: TPA ear edema model. The conditions noted are these: for Topical Dose (% change vs. vehicle) 0.1%: topical 0.1%; for Topical Dose (% change vs. vehicle) 0.1% / Topical Dose (% change vs. vehicle) 1.0% / Topical Dose (% change vs. vehicle) 5 0%: ear biopsy weight six hours after TPA; for Topical Dose (% change vs. vehicle) 1.0%: topical 1.0%.

Assay [1] has as its system oxazolone contact hypersensitivity (ear inflammation). Nature of the assay: Oxazolone contact hypersensitivity model. The note with it: Dosage of 0.1%, applied to ear one hour after oxazolone challenge, ear punch weight after 24 h, 70% EtOH/30% propylene glycol vehicle. It counts as in vivo, CD-1 mice. On the procedure: Briefly, a 3.0% (w/v) solution of oxazolone in acetone/corn oil (5:1) is applied topically to the skin on the shaved abdomens of mice of approximately the same weight and approximately the same age on day 0. […] Twenty-four hours later a dermal biopsy punch of the treated ear is taken and weighed.
CD-1 mice are treated with 3% oxazolone (Sigma) (30 mg/ml) in corn oil:acetone on a shaved abdomen. All solutions are sonicated for 7 minutes. Five days later, the mice are challenged with a 2% oxazolone (20 mg/ml) in acetone on the left ear, with the right ear being left untreated (control). One hour after challenge, the candidate peptide in a 70% EtOH/30% propylene glycol formulation (vehicle) was applied to the left ear, with the right ear being left untreated. After 24 h, 7 mm ear punches are taken from each ear of the mice. The ear punches are placed on a scale and the difference between the treated and untreated ears were compared. The percent inhibition of inflammation was calculated by comparing the mean of each treated group to the control group. The positive control is hydrocortisone (a known anti-inflammatory agent). Most of the indolicidin peptides inhibited inflammation as well as hydrocortisone.

Where [2] appears, read: formulated in 50% ethanol/5 mM lactate buffer (*).
Where [3] appears, read: topical 5 0%, formulated in 50% ethanol/5 mM lactate buffer (*).
[4] abbreviates: topical 5.0%, formulated in 95% ethanol.

Marks after values point to notes of the source that are not given here. Ends that are not written are not given here.

As to `C[C@@H]1C[C@H]2[C@@H]3CCC4=CC(=O)C=C[C@]4(C)[C@@]3(F)[C@@H](O)C[C@]2(C)[C@@]1(O)C(=O)CO` [Dexamethasone, dexamethasone, reference compound], in the assay on TPA-induced ear edema (systemic 5 mg/kg), the “Systemic Dose (% change vs. vehicle) 5 mg/kg” value is >−80%. In addition, the “Topical Dose (% change vs. vehicle) 0.1%” value in the assay on TPA-induced ear edema (setting [2]) is listed as >−90* %; in the assay with TPA-induced ear edema (formulated in 95% ethanol), −92%.
As to `CC[C@H]1OC(=O)[C@H](C)[C@@H](O[C@H]2C[C@@](C)(OC)[C@@H](O)[C@H](C)O2)[C@H](C)[C@@H](O[C@@H]2O[C@H](C)C[C@H](N(C)C)[C@H]2O)[C@](C)(O)C[C@@H](C)C(=O)[C@H](C)[C@@H](O)[C@]1(C)O` [Erythromycin, erythromycin, reference compound], in the assay on TPA-induced ear edema (setting [2]), the “Topical Dose (% change vs. vehicle) 0.1%” value is reported as −20* % and the “Topical Dose (% change vs. vehicle) 1.0%” value is reported as −67* %. For the same compound, in the assay on TPA-induced ear edema (setting [3]), the “Topical Dose (% change vs. vehicle) 5 0%” value was −87* %.
`C[C@]12CCC(=O)C=C1CC[C@@H]1[C@@H]2[C@@H](O)C[C@@]2(C)[C@H]1CC[C@]2(O)C(=O)CO` [Hydrocortisone, hydrocortisone, reference compound]: in assay [1], the “% Inhibition of Inflammation” value is recorded as 84.92%.
In the case of “A-ILTWPWWPWTTT-CN (not fully specified; N-terminal A, C-terminal nitrile/amide) [Peptide 11B24ACN]”, the “Topical Dose (% change vs. vehicle) 5 0%” value in the assay with TPA-induced ear edema (setting [4]) is −75%.
For “F R F F K P K F R F P K F (FRFFKPKFRFPKF-{CN}) [Peptide 11J33CN]”, in the assay on TPA-induced ear edema (formulated in 95% ethanol), the “Topical Dose (% change vs. vehicle) 1.0%” value is −52%.
H-GWRFLKLAWRFLKL-OH [Peptide 11J97]: in the assay with TPA-induced ear edema (formulated in 95% ethanol), the “Topical Dose (% change vs. vehicle) 0.1%” value is recorded as “+33%” and the “Topical Dose (% change vs. vehicle) 1.0%” value was −29%. In addition, the “Topical Dose (% change vs. vehicle) 5 0%” value in the assay with TPA-induced ear edema (setting [4]) is recorded as −49%.
Regarding H-GWRFLKLAWRFLKLRR-OH [Peptide 11J136], in the assay on TPA-induced ear edema (formulated in 95% ethanol), the “Topical Dose (% change vs. vehicle) 0.1%” value was −12% and the “Topical Dose (% change vs. vehicle) 1.0%” value is −54%.
Taken in the same sequence, the figures for “H-ILRWVWRIL-CN (H-ILRWVWRIL-{CN}) [Peptide 11J148CN]” were −33% and −74%.
Taken in the same sequence, the figures for “H-ILRWVWRILR-CN (H-ILRWVWRILR-{CN}; not fully specified) [Peptide 11J131CN]” were −20% and −43%.
Take “H-L(Orn)FL(Orn)W AF(Orn)L W(Orn)L-CN [Peptide 11J84CN]”: in the assay on TPA-induced ear edema (formulated in 95% ethanol), the “Topical Dose (% change vs. vehicle) 0.1%” value was −14% and the “Topical Dose (% change vs. vehicle) 1.0%” value was −35%.
“H-LRFLKW(Aib)WRFLKL-CN [Peptide 11J105CN]”: in the assay on TPA-induced ear edema (formulated in 95% ethanol), the “Topical Dose (% change vs. vehicle) 0.1%” value was −4% and the “Topical Dose (% change vs. vehicle) 1.0%” value was −51%.
Taken in the same sequence, the figures for H-RILRW(Aib)WRILR-CN [Peptide 11J157CN] were “+5%” and −55%.
In the case of “H-RILRWVWRILR-CN (H-RILRWVWRILR-{CN}) [Peptide 11J115CN]”, in the assay on TPA-induced ear edema (formulated in 95% ethanol), the “Topical Dose (% change vs. vehicle) 0.1%” value was −1% and the “Topical Dose (% change vs. vehicle) 1.0%” value was −57%.
For “I L E E W P W W P W E E E (ILEEWPWWPWEEE-{CN}) [Peptide 11B11CN]”, the “Topical Dose (% change vs. vehicle) 5 0%” value in the assay on TPA-induced ear edema (setting [3]) is reported as −64* %.
“I L Q W P W W P W Q Q Q (ILQWPWWPWQQQ-{CN}) [Peptide 11B38CN]”: the “Topical Dose (% change vs. vehicle) 1.0%” value in the assay with TPA-induced ear edema (formulated in 95% ethanol) is −8%. Also, the “Topical Dose (% change vs. vehicle) 5 0%” value in the assay with TPA-induced ear edema (setting [4]) is −51%.
